According to US12600732B2, “Bifunctional compounds for degrading BTK via ubiquitin proteosome pathway” (NURIX THERAPEUTICS, INC., priority 2019, dated 2026):

Assays:
BTK [1] = target: T1, BTK (Mus musculus, UniProt P35991); assay: In vivo degradation of BTK in mouse PD experiments with oral dosing
T1 construct: from tissue; host or cells: mouse blood B cells / splenocytes (CD-1 or BALB/c)
How it was run: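 CD-1 or BALB/c mice dosed by oral gavage, screens at 90 mg/kg for 6 h, later at lower doses/longer times. Blood or splenocyte BTK measured by intracellular flow cytometry (or HTRF); % degradation from B-cell minus T-cell BTK geometric MFI, relative to vehicle.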

TMD8 C481S cells = assay: Cell viability assay (CellTiter-Glo), TMD8 C481S cells; conditions: for EC50: Homo sapiens, TMD8, 72 h; for EMAX (% viable cells): TMD8 C481S cells, treatment time 72 h
Experimental: Cell viability was determined using CellTiter-Glo 2.0 Luminescent Cell Viability Assay (Promega, G9242), which quantitates the amount of ATP present as a proxy for the number of viable cells in culture. Cells were plated with densities between 2000-4000 cells per well in 96-well plates. […] CellTiter-Glo reagent was added to cells at a dilution of 1:20, and the plate was incubated ten minutes at room temperature prior to reading the luminescence signal using an EnVision plate reader. Controls included cells treated with DMSO and wells that contained no cells, only media. Background luminescence signal was determined by control wells containing no cells, only media, and was then subtracted from all sample wells. Luminescence values were then normalized to DMSO-treated wells and reported at proportion viable cells.

BTK C481S = BTK C481S (Homo sapiens, UniProt Q06187, C481S); assay: BTK degradation (Total BTK HTRF) in TMD8 cells expressing BTK-C481S; type: cell-based; set-up: endogenous in cells; host or cells: TMD8 BTK-C481S (clone2C3), Cas9 RNP knock-in; conditions: TMD8 BTK-C481S (clone2C3) cells, treatment time 4 h
How it was run: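 TMD8 cells expressing BTK-C481S were treated for four hours, then lysed for 30 min. Total BTK was measured by HTRF with Eu-cryptate donor and d2 acceptor antibodies as the 665/620 nm ratio, minus donor-only background. DC50 came from four-parameter fits of signal relative to DMSO-treated cells.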

CRBN neo-substrates = assay: CRBN neo-substrate levels / IMiD activity in MOLT4 and TMD8 cells (FIGS. 10-12); type: cell-based; conditions: for IMiD activity: FIG. 12; for effects on CRBN neo-substrate levels: after twenty-four hours, TMD8 and/or MOLT4 cells, FIGS. 10A and 10B; for effect on CRBN neo-substrate levels in cells: MOLT4 and TMD8 cells, FIGS. 11A and 11B
Text: FIGS. 10A and 10B provide effects of compounds 73, 72, 121, and 44, and control compounds, on neo-substrate and ITK or BTK levels after twenty-four hours in MOLT4 cells (FIG. 10A) and TMD8 cells (FIG. 10B).
FIGS. 11A and 11B provide effects of compounds 44, 72, and 149, and control compounds, on CRBN neo-substrate and ITK levels in MOLT4 cells (FIG. 11A) and TMD8 cells (FIG. 11B).
FIG. 12 provides effects of compounds 130, 149, and 44 on ITK levels and IMiD activity.

BTK [2] = target: BTK (Homo sapiens, UniProt Q06187); assay: Cellular BTK degradation assay (Total BTK HTRF) in TMD8 cells; type: cell-based; set-up: endogenous in cells; host or cells: TMD8; conditions: treatment time 24 h
Experimental: Cellular BTK Degradation Assay
In Vitro Cellular Screening to Determine Potency as Measured by DC50 Values after Four Hour Incubation
BTK levels were determined using Cisbio Total-BTK HTRF (Homologous Time-Resolved Fluorescence) kit (63ADK064PEG) according to the manufacturer's protocol. Briefly, cells were incubated in 1× supplied lysis buffer for 30 minutes. In an opaque white low volume 96-well plate (Cisbio, 66PL96005), cell lysate was combined with two different specific BTK antibodies, one conjugated with Eu^3+-Cryptate FRET donor and one conjugated with d2 FRET acceptor. Assay controls include wells containing cell lysate with only the Eu^3+-Cryptate FRET donor antibody and wells containing both HTRF antibodies and lysis buffer without cells or control lysate provided by Cisbio. HTRF ratio was calculated as (acceptor signal at 665 nm/donor signal at 620 nm)×10^4. Background HTRF levels were determined from the control well containing the donor, but no acceptor, antibody. Background HTRF levels were subtracted from all samples. Readouts were reported as HTRF levels relative to HTRF levels of DMSO-treated cells. Four-parameter non-linear regressions were performed in GraphPad Prism 7.02 to obtain DC50 values.
Cellular BTK degradation was measured as above for four hours in TMD8 cells for two diastereomers of compound 130. DC50 and EC50 values are the concentration at which the response is halfway between the top and bottom of the fitted non-linear regression curve.
The present example evaluates whether potency of BTK CTMs shifts with longer timepoints. DC50 values are typically calculated with a 4-hour timepoint.

[3] = Compound plasma exposure in mouse (CD-1), daily oral dosing, same table as the cyno DRF study; type: in vivo; conditions: CD-1, mouse
Rec-1 cells = assay: Cell viability assay (CellTiter-Glo), Rec-1 cells; type: cell-based; conditions: for EC50: Homo sapiens, Rec1, treatment time 72 h; for EMAX (% viable cells): treatment time 72 h
Text: This example evaluates effects of CTM-mediated degradation on cell viability. […] Mino and Rec-1 are models of Mantle Cell Lymphoma, which is sensitive to IMiDs.

[4] = oral dose 30 mg/kg, 24 h, splenocytes, HTRF
[5] = oral dose 10 mg/kg, 24 h, splenocytes, HTRF
[6] = 30 mg/kg, 30 mg/kg PO, 1 day of dosing
[7] = 30 mg/kg, 30 mg/kg PO, 14 days of dosing
[8] = 100 mg/kg, 100 mg/kg PO, 1 day of dosing
[9] = 100 mg/kg, 100 mg/kg PO, 14 days of dosing
[10] = 300 mg/kg, 300 mg/kg PO, 1 day of dosing
[11] = 300 mg/kg, 300 mg/kg PO, 14 days of dosing
[12] = oral dose 30 mg/kg, 24 h, blood, flow cytometry

Row | % BTK Remaining (BTK [1]; [4]) | DC50 (BTK C481S) | DC50 (BTK [2]) | AUC [3, 6] | Cmax [3, 6] | AUC [3, 7] | Cmax [3, 7] | AUC [3, 8] | Cmax [3, 8] | AUC [3, 9] | Cmax [3, 9] | AUC [3, 10] | Cmax [3, 10] | AUC [3, 11] | Cmax [3, 11] | SMILES | EC50 (TMD8 C481S cells) | EMAX (% viable cells) (TMD8 C481S cells) | effects on CRBN neo-substrate levels (CRBN neo-substrates) | EC50 (Rec-1 cells) | EMAX (% viable cells) (Rec-1 cells) | further results
1 | 33% | 4.1 nM | 1 nM |  |  |  |  |  |  |  |  |  |  |  |  | CN1CCN([C@@H]2CCCN(c3cnc(C(N)=O)c(Nc4ccc(C5CCN(CC6CCN(c7ccc(-c8nn(C9CCC(=O)NC9=O)c(=O)n8C)cc7)CC6)CC5)cc4)n3)C2)C1=O (stereo partly shown) [Compound 121] | 4.94 nM | 31% | minimal effects |  |  | % BTK Remaining (BTK [1]; oral dose 0.3 mg/kg, 24 h, blood, flow cytometry): 102%; % BTK Remaining (BTK [1]; oral dose 3 mg/kg, 24 h, blood, flow cytometry): 68%; % BTK Remaining (BTK [1]; [12]): 28%
2 |  | 1.8 nM |  | 23.2 µM·h | 2200 nM | 21.1 µM·h | 1700 nM | 51.3 µM·h | 3800 nM | 49.8 µM·h | 3400 nM | 67 µM·h | 5100 nM | 72.2 µM·h | 5200 nM | CN1CCN([C@H]2CCCN(c3cnc(C(N)=O)c(Nc4ccc(C5CCN(CC6CCN(c7ccc(C(=O)NC8CCC(=O)NC8=O)nc7)CC6)CC5)cc4)n3)C2)C1=O (stereo partly shown) [Compound 130] | 4.83 nM | 33% |  | 155 nM | 63% | % BTK Remaining (BTK [1]; [12]): 5%; IMiD activity (CRBN neo-substrates): did not have IMiD activity

The next lines start with the compound.

Row | SMILES | % BTK Remaining (BTK [1]; [4]) | DC50 (BTK C481S) | DC50 (BTK [2]) | AUC [3, 6] | Cmax [3, 6] | AUC [3, 7] | Cmax [3, 7] | AUC [3, 8] | Cmax [3, 8] | AUC [3, 9] | Cmax [3, 9] | AUC [3, 10] | Cmax [3, 10] | AUC [3, 11] | Cmax [3, 11] | EC50 (TMD8 C481S cells) | EMAX (% viable cells) (TMD8 C481S cells) | effects on CRBN neo-substrate levels (CRBN neo-substrates) | EC50 (Rec-1 cells) | EMAX (% viable cells) (Rec-1 cells) | further results
3 | CN1CCN([C@@H]2CCCN(c3cnc(C(N)=O)c(Nc4ccc(C5CCN(CC6CCN(c7ccc8c(=O)n(C9CCC(=O)NC9=O)ccc8c7)CC6)CC5)cc4)n3)C2)C1=O (stereo partly shown) [Compound 72] | 20% | 2 nM | 0.21 nM |  |  |  |  |  |  |  |  |  |  |  |  | 1.16 nM | 21% | does not effect |  |  | IMiD activity (CRBN neo-substrates): did not have IMiD activity
4 | CN1CCN([C@@H]2CCCN(c3cnc(C(N)=O)c(Nc4ccc(C5CCN(C[C@H]6CCN(c7ccc8c(c7)C(=O)N(C7CCC(=O)NC7=O)C8=O)C6)CC5)cc4)n3)C2)C1=O (stereo partly shown) [Compound 44] | 23% | 1.8 nM | 0.36 nM | 2.32 µM·h | 230 nM | 2.22 µM·h | 250 nM | 4.15 µM·h | 400 nM | 8.07 µM·h | 590 nM | 9.53 µM·h | 740 nM | 12.8 µM·h | 940 nM | 8.1 nM | 25% | some effects | 0.82 nM | 37% | % BTK Remaining (BTK [1]; dose 1(IV) mg/kg, 24 h, splenocytes, HTRF): 58%; % BTK Remaining (BTK [1]; oral dose 1 mg/kg, 6 h, splenocytes, HTRF): 58%; % BTK Remaining (BTK [1]; oral dose 3 mg/kg, 6 h, splenocytes, HTRF): 32%; % BTK Remaining (BTK [1]; oral dose 10 mg/kg, 6 h, splenocytes, HTRF): 11%; % BTK Remaining (BTK [1]; [5]): 34%; % BTK Remaining (BTK [1]; oral dose 30 mg/kg, 6 h, splenocytes, HTRF): 4%; % BTK Remaining (BTK [1]; oral dose 90 mg/kg, 6 h, splenocytes, HTRF): 4%; effect on CRBN neo-substrate levels in cells (CRBN neo-substrates): some effect
5 | NC(=O)c1ncc(N2CCCCC2)nc1Nc1ccc(C2CCN(C[C@@H]3CCN(c4ccc5c(c4)C(=O)N(C4CCC(=O)NC4=O)C5=O)C3)CC2)cc1 (stereo partly shown) [Compound 149] | 8% | 14.4 nM | 2.3 nM | 12.2 µM·h | 940 nM | 22.8 µM·h | 1640 nM | 27.7 µM·h | 2050 nM | 33.4 µM·h | 2410 nM | 38.6 µM·h | 2610 nM | 64.2 µM·h | 4100 nM | 37.2 nM | 18% |  | 0.17 nM | 24% | % BTK Remaining (BTK [1]; oral dose 10 mg/kg, 24 h, blood, flow cytometry): 27%; % BTK Remaining (BTK [1]; [5]): 21%; % BTK Remaining (BTK [1]; [12]): 11%; % BTK Remaining (BTK [1]; oral dose 90 mg/kg, 24 h, blood, flow cytometry): 1%; % BTK Remaining (BTK [1]; oral dose 90 mg/kg, 24 h, splenocytes, HTRF): 1%; effect on CRBN neo-substrate levels in cells (CRBN neo-substrates): some effect
